This note sets out measurements from EPA's ToxValDB 9.5 (doi:10.2903/j.efsa.2006.61r).

The test system of one series is Tagia sp. The following applies: acute; duration: 14 days; mortality.
The test system of a further series is Bibionidae. The following applies: chronic/long-term; duration: 28 days; seedling emergence.
In a further series the test system is Rattus norvegicus. The following applies: for LD50: acute, oral, mortality.
A further series concerns Pontoscolex corethrurus. The following applies: chronic/long-term.
For the next series, the system named is Oncorhynchus mykiss. The following applies: acute; duration: 96 hours; mortality.
For a further series, the system named is Apis mellifera. The following applies: acute, mortality.
For the next series, the system named is Trichogramma cacoeciae. The following applies: not reported.
In another series the test system is Anas platyrhynchos. The following applies: acute; oral; unspecified; mortality.
A further series has as its system Daphnia magna. The following applies: chronic/long-term; duration: 21 days; reproduction.
Another series concerns Colinus virginianus. The following applies: for LD50: acute, oral, mortality.

Values after ≈ are worked out from the molar mass of the structure shown.

Usually NOAEL stands for the highest tested level that showed no adverse finding. Turning to `Cc1cc(C)nc(Nc2ccccc2)n1` [Pyrimethanil], the LEL was found to be 1000 g/ha with Encarsia formosa (acute, duration: 6 days, mortality); 1000 g/ha in the series with Encarsia formosa (not reported, reproduction); 1000 g/ha in the series with Trichogramma cacoeciae (mortality); 1000 g/ha in the series on Trichogramma cacoeciae (reproduction). Further, the results for the LC50 in the series on Tagia sp. and in the series on Oncorhynchus mykiss were 626 mg/kg and 10.6 µg/mL (≈ 53 µM), respectively. For the same compound, the NOEC in the series with Bibionidae came out at 4 mg/L; with Pontoscolex corethrurus it was 4.12 mg/kg; in the series with Daphnia magna, 0.94 mg/L. Besides, the LD50 was 5970 mg/kg in the series with Rattus norvegicus (F); 4150 mg/kg in the series on Rattus norvegicus (M); > 100 µg/piece with Apis mellifera (dermal); > 100 µg/piece in the series with Apis mellifera (duration: 48 hours, oral, unspecified); > 2000 mg/kg in the series with Anas platyrhynchos; > 874 mg/kg in the series with Colinus virginianus (diet). In addition, the LD50 with Colinus virginianus was > 2000 mg/kg. Further, the no observed adverse effect level (NOAEL) in the series on Rattus norvegicus (chronic, duration: 2 years, clinical chemistry) was found to be 17 mg/kg-day; in the series with Rattus norvegicus (reproduction developmental, M, body weight) it was 18.4 mg/kg-day; in the series with Rattus norvegicus (subchronic, duration: 90 days, organ weight), 5.4 mg/kg-day; with Colinus virginianus (reproduction developmental), 96 mg/kg-day.
